Measured values taken from US9802895B2, “Indole and benzimidazolecarboxamides as insecticides and acaricides” (BAYER CROPSCIENCE AKTIENGESELLSCHAFT, priority 2014, dated 2017).

Legend:
[1] = test system: adult houseflies (Musca domestica); assay: Musca domestica test (MUSCDO); assay type: in vivo; settings: 100 ppm, after 2 days
Procedure: Musca domestica Test (MUSCDO) Solvent: dimethyl sulphoxide To produce a suitable active compound formulation, 10 mg of active compound are mixed with 0.5 ml of dimethyl sulphoxide, and the concentrate is diluted with water to the desired concentration. Vessels containing a sponge treated with sugar solution and the active compound preparation of the desired concentration are populated with 10 adult houseflies (Musca domestica). After 2 days, the kill in % is determined. 100% means that all of the flies have been killed; 0% means that none of the flies have been killed.

[2] = test system: larvae of the mustard beetle (Phaedon cochleariae); assay: Phaedon cochleariae spray test (PHAECO); assay type: in vivo; settings: after 7 days
Procedure: Phaedon cochleariae—Spray Test (PHAECO)
(§1) Solvent: 78.0 parts by weight of acetone • • 1.5 parts by weight of dimethylformamide
(§2) Emulsifier: alkylaryl polyglycol ether
(§3) To produce a suitable active compound formulation, 1 part by weight of active compound is dissolved using the specified parts by weight of solvent and made up with water containing an emulsifier concentration of 1000 ppm until the desired concentration is attained. To produce further test concentrations, the preparation is diluted with emulsifier-containing water.
After 7 days, the efficacy in % is determined. 100% means that all the beetle larvae have been killed; 0% means that no beetle larvae have been killed.

[3] = test system: greenhouse red spider mite (Tetranychus urticae); assay: Tetranychus urticae spray test, OP-resistant (TETRUR); assay type: in vivo; settings: 100 g/ha, spray, after 6 days
Procedure: Tetranychus urticae—Spray Test, OP-Resistant (TETRUR)
as §1, §2, §3
Discs of bean leaves (Phaseolus vulgaris) infested by all stages of the greenhouse red spider mite (Tetranychus urticae) are sprayed with an active compound formulation of the desired concentration.
After 6 days, the efficacy in % is determined 100% means that all the spider mites have been killed; 0% means that none of the spider mites have been killed.
Tetranychus urticae—Spray Test; OP-Resistant (TETRUR)
After the desired period of time, the efficacy in % is determined 100% means that all the spider mites have been killed; 0% means that none of the spider mites have been killed.

[4] = test system: L1 larvae of the Australian sheep blowfly (Lucilia cuprina); assay: Lucilia cuprina test (LUCICU); assay type: in vivo; settings: 100 ppm, after 2 days
Procedure: Lucilia cuprina Test (LUCICU) Solvent: dimethyl sulphoxide To produce a suitable active compound formulation, 10 mg of active compound are mixed with 0.5 ml of dimethyl sulphoxide, and the concentrate is diluted with water to the desired concentration. About 20 L1 larvae of the Australian sheep blowfly (Lucilia cuprina) are transferred into a test vessel containing minced horsemeat and the active compound preparation of the desired concentration. After 2 days, the kill in % is determined 100% means that all the larvae have been killed; 0% means that none of the larvae have been killed.

[5] = test system: engorged adult female cattle ticks (Boophilus microplus); assay: Boophilus microplus injection test (BOOPMI inj); assay type: in vivo; settings: assessed after 7 days
Procedure: Boophilus microplus Injection Test (BOOPMI inj) Solvent: dimethyl sulphoxide To produce a suitable active compound formulation, 10 mg of active compound are mixed with 0.5 ml of solvent and the concentrate is diluted with solvent to the desired concentration. 1 μl of the active compound solution is injected into the abdomen of 5 engorged adult female cattle ticks (Boophilus microplus). The animals are transferred into dishes and kept in a climate-controlled room. The efficacy is assessed after 7 days by laying of fertile eggs. Eggs which are not visibly fertile are stored in a climate-controlled cabinet until the larvae hatch after about 42 days. An efficacy of 100% means that none of the ticks has laid any fertile eggs; 0% means that all the eggs are fertile.

[6] = test system: caterpillars of the armyworm (Spodoptera frugiperda); assay: Spodoptera frugiperda spray test (SPODFR); assay type: in vivo; settings: for efficacy: 100 g/ha, spray, after 7 days
Procedure: Spodoptera frugiperda—Spray Test (SPODFR) Solvent: 78.0 parts by weight of acetone • • 1.5 parts by weight of dimethylformamide Emulsifier: alkylaryl polyglycol ether To produce a suitable active compound formulation, 1 part by weight of active compound is dissolved using the specified parts by weight of solvent and made up with water containing an emulsifier concentration of 1000 ppm until the desired concentration is attained. To produce further test concentrations, the preparation is diluted with emulsifier-containing water. Leaf discs of maize (Zea mays) are sprayed with an active compound formulation of the desired concentration and, after drying, populated with caterpillars of the armyworm (Spodoptera frugiperda). After 7 days, the efficacy in % is determined 100% means that all the caterpillars have been killed; 0% means that no caterpillars have been killed. Spodoptera frugiperda—Spray Test (SPODFR) Solvent: 78.0 parts by weight of acetone • • 1.5 parts by weight of dimethylformamide Emulsifier: alkylaryl polyglycol ether To produce a suitable active compound formulation, 1 part by weight of active compound is dissolved using the specified parts by weight of solvent and made up with water containing an emulsifier concentration of 1000 ppm until the desired concentration is attained. To produce further test concentrations, the preparation is diluted with emulsifier-containing water. Leaf discs of maize (Zea mays) are sprayed with an active compound formulation of the desired concentration and, after drying, populated with caterpillars of the armyworm (Spodoptera frugiperda). After the desired period of time, the efficacy in % is determined. 100% means that all the caterpillars have been killed; 0% means that no caterpillars have been killed.

[7] = log P by HPLC (EEC directive 79/831 Annex V.A8); assay type: physicochemical; settings: 43° C., acidic range pH 2.7; for log P: HPLC, reversed-phase column (C18)
Procedure: a) The determination of the M^+ by LC-MS in the acidic range is effected at pH 2.7, acetonitrile (contains 0.1% formic acid) and water as eluents; linear gradient from 10% acetonitrile to 95% acetonitrile, instrument: Agilent 1100 LC system, Agilent MSD system, HTS PAL. The log P values reported in the tables and Preparation Examples above were determined in accordance with EEC directive 79/831 Annex V.A8 by HPLC (High Performance Liquid Chromatography) using a reversed-phase column (C18). Temperature 43° C. The calibration is effected with unbranched alkan-2-ones (having 3 to 16 carbon atoms), for which the logP values are known.

[8] = test system: adult cat fleas (Ctenocephalides felis); assay: Ctenocephalides felis oral test (CTECFE); assay type: in vivo; settings: 100 ppm, oral in cattle blood, after 2 days
Procedure: Ctenocephalides felis-Oral Test ([…]) Solvent: dimethyl sulphoxide To produce a suitable active compound formulation, 10 mg of active compound are mixed with 0.5 ml of dimethyl sulphoxide. Dilution with citrated cattle blood gives the desired concentration. About 20 unfed adult cat fleas (Ctenocephalides felis) are placed into a chamber which is closed at the top and bottom with gauze. A metal cylinder whose bottom end is closed with parafilm is placed onto the chamber. The cylinder contains the blood/active compound preparation, which can be imbibed by the fleas through the parafilm membrane. After 2 days, the kill in % is determined 100% means that all of the fleas have been killed; 0% means that none of the fleas have been killed.

CCn1c(C(=O)NC(c2cc(Cl)c(F)c(Cl)c2F)C(F)(F)F)cc2cc(C(=O)NC3(C(N)=S)CC3)c(Cl)cc21 (stereo not drawn) [I-01, N5-(1-Carbamothioylcyclopropyl)-6-chloro-N2-[1-(3,5-dichloro-2,4-difluorophenyl)-2,2,2-trifluoroethyl]-1-ethylindole-2,5-dicarboxamide]
efficacy (kill in %) [1]: 100% | efficacy ([2]; 100 g/ha): 100% | efficacy [3]: 100% | efficacy (kill in %) [4]: 100% | efficacy (laying of fertile eggs) [5]: 100% | efficacy [6]: 100% | % efficacy (mortality) at a single application rate at 0.8 g/ha ([6]; Spodoptera frugiperda, 168 h, SPODFR, 0.8 g/ha, 7 dat): 100% | % efficacy (mortality) at a single application rate at 4 g/ha ([6]; Spodoptera frugiperda, 168 h, SPODFR, 4 g/ha, 7 dat): 100% | chromatographic logP ([7]; reversed-phase C18 HPLC column, pH 2.7, HPLC): 4.25 | efficacy (kill in %) [8]: 100%

CCn1c(C(=O)NC(c2cc(F)c(Cl)c(F)c2F)C(F)(F)F)cc2cc(C(=O)NC3(C(N)=S)CC3)c(Cl)cc21 (stereo not drawn) [I-31]
efficacy (kill in %) [1]: 100% | efficacy ([2]; 100 g/ha): 100% | efficacy [3]: 100% | efficacy (kill in %) [4]: 100% | efficacy (laying of fertile eggs) [5]: 100% | efficacy [6]: 100% | log P [7]: 4.02 | efficacy (kill in %) [8]: 100%

CCn1c(C(=O)NC(c2cc(Cl)c(F)c(F)c2F)C(F)(F)F)cc2cc(C(=O)NC3(C(N)=S)CC3)c(Cl)cc21 (stereo not drawn) [I-26]
efficacy (kill in %) [1]: 100% | efficacy ([2]; 100 g/ha): 100% | efficacy [3]: 100% | efficacy (kill in %) [4]: 100% | efficacy (laying of fertile eggs) [5]: 100% | efficacy [6]: 100% | log P [7]: 3.99 | efficacy (kill in %) [8]: 100%

CCn1c(C(=O)NC(c2cccc(Cl)c2F)C(F)(F)F)cc2cc(C(=O)NC3(C(N)=S)CC3)c(Cl)cc21 (stereo not drawn) [I-11]
efficacy ([2]; 100 g/ha): 100% | efficacy [3]: 100% | efficacy (laying of fertile eggs) [5]: 100% | efficacy [6]: 100% | log P [7]: 3.69 | efficacy (kill in %) [8]: 100%

CCn1c(C(=O)NC(c2ccc(F)c(Cl)c2)C(F)(F)F)cc2cc(C(=O)NC3(C(N)=S)CC3)c(Cl)cc21 (stereo not drawn) [I-04]
efficacy (kill in %) [1]: 100% | efficacy ([2]; 100 g/ha): 100% | efficacy [3]: 100% | efficacy (kill in %) [4]: 100% | efficacy (laying of fertile eggs) [5]: 100% | efficacy [6]: 100% | % efficacy ([6]; SPODFR, 0.8 g/ha, 7 dat): 100% | % efficacy ([6]; SPODFR, 4 g/ha, 7 dat): 100% | log P [7]: 3.57 | efficacy (kill in %) [8]: 100%

CCn1c(C(=O)NC(c2cc(F)c(Cl)c(Cl)c2F)C(F)(F)F)cc2cc(C(=O)NC3(C(N)=S)CC3)c(Cl)cc21 (stereo not drawn) [I-27]
efficacy (kill in %) [1]: 100% | efficacy ([2]; 100 g/ha): 100% | efficacy [3]: 100% | efficacy (kill in %) [4]: 100% | efficacy (laying of fertile eggs) [5]: 100% | efficacy [6]: 100% | log P [7]: 4.28 | efficacy (kill in %) [8]: 100%

C#CCn1c(C(=O)NC(c2cc(Cl)c(F)c(Cl)c2F)C(F)(F)F)cc2cc(C(=O)NC3(C(N)=S)CC3)c(Cl)cc21 (stereo not drawn) [I-12]
efficacy (kill in %) [1]: 100% | efficacy ([2]; 100 g/ha): 100% | efficacy (kill in %) [4]: 100% | efficacy (laying of fertile eggs) [5]: 100% | efficacy [6]: 100% | % efficacy ([6]; SPODFR, 0.8 g/ha, 7 dat): 100% | % efficacy ([6]; SPODFR, 4 g/ha, 7 dat): 100% | log P [7]: 3.94 | efficacy (kill in %) [8]: 100%

CCn1c(C(=O)NC(c2ccc(F)c(Br)c2)C(F)(F)F)cc2cc(C(=O)NC3(C(N)=S)CC3)c(Cl)cc21 (stereo not drawn) [I-06]
efficacy ([2]; 100 g/ha): 100% | efficacy [3]: 100% | efficacy [6]: 100% | % efficacy ([6]; SPODFR, 0.8 g/ha, 7 dat): 100% | % efficacy ([6]; SPODFR, 4 g/ha, 7 dat): 100% | log P [7]: 3.64

Cn1c(C(=O)NC(c2cc(Cl)c(F)c(Cl)c2F)C(F)(F)F)cc2cc(C(=O)NC3(C(N)=S)CC3)c(Cl)cc21 (stereo not drawn) [I-08]
efficacy ([2]; 100 g/ha): 100% | efficacy [3]: 100% | efficacy (kill in %) [4]: 100% | efficacy (laying of fertile eggs) [5]: 100% | efficacy [6]: 100% | % efficacy ([6]; SPODFR, 0.8 g/ha, 7 dat): 100% | % efficacy ([6]; SPODFR, 4 g/ha, 7 dat): 100% | log P [7]: 3.94 | efficacy (kill in %) [8]: 100%

Cn1c(C(=O)NC(c2cc(Cl)c(F)c(Cl)c2)C(F)(F)F)cc2cc(C(=O)NC3(C(N)=S)CC3)c(Cl)cc21 (stereo not drawn) [I-15]
efficacy ([2]; 20 g/ha): 100% | efficacy [3]: 90% | efficacy [6]: 100% | % efficacy ([6]; SPODFR, 0.8 g/ha, 7 dat): 83% | % efficacy ([6]; SPODFR, 4 g/ha, 7 dat): 100% | log P [7]: 3.76

C#CCn1c(C(=O)NC(c2cc(Cl)c(Cl)c(Cl)c2)C(F)(F)F)cc2cc(C(=O)NC3(C(N)=S)CC3)c(Cl)cc21 (stereo not drawn) [I-21]
efficacy ([2]; 100 g/ha): 100% | efficacy [3]: 100% | efficacy [6]: 100% | % efficacy ([6]; SPODFR, 0.8 g/ha, 7 dat): 100% | % efficacy ([6]; SPODFR, 4 g/ha, 7 dat): 100% | log P [7]: 4.09

C#CCn1c(C(=O)NC(c2cc(Cl)c(F)c(Cl)c2)C(F)(F)F)cc2cc(C(=O)NC3(C(N)=S)CC3)c(Cl)cc21 (stereo not drawn) [I-14]
efficacy ([2]; 100 g/ha): 100% | efficacy [3]: 100% | efficacy [6]: 100% | log P [7]: 3.81

CCn1c(C(=O)NC(c2cc(Cl)c(F)c(Cl)c2F)C(F)F)cc2cc(C(=O)NC3(C(N)=S)CC3)c(Cl)cc21 (stereo not drawn) [I-28]
efficacy ([2]; 100 g/ha): 100% | efficacy [3]: 100% | efficacy [6]: 100% | log P [7]: 3.90

CCn1c(C(=O)NC(c2cc(F)cc(F)c2)C(F)F)cc2cc(C(=O)NC3(C(N)=S)CC3)c(Cl)cc21 (stereo not drawn) [I-23]
efficacy ([2]; 100 g/ha): 100% | efficacy [3]: 100% | efficacy (kill in %) [4]: 90% | efficacy (laying of fertile eggs) [5]: 100% | efficacy [6]: 83% | log P [7]: 3.07 | efficacy (kill in %) [8]: 100%

CCn1c(C(=O)NC(c2ccc(Cl)c(Cl)c2)C(F)F)cc2cc(C(=O)NC3(C(N)=S)CC3)c(Cl)cc21 (stereo not drawn) [I-25]
efficacy ([2]; 100 g/ha): 100% | efficacy [3]: 100% | efficacy (kill in %) [4]: 100% | efficacy (laying of fertile eggs) [5]: 100% | efficacy [6]: 100% | log P [7]: 3.54 | efficacy (kill in %) [8]: 100%
